Laboratory results published in patent US20100179225A1, “POI Prevention” (CYTOKINE PHARMASCIENCES, INC., priority 2008, published 2010).

Columns and labels:
[1] = tested on: apoptotic cells in graft muscularis; test: Apoptosis within smooth muscle layer of grafts (TUNEL); assay type: in vivo, Lewis rats; conditions: 1 mg/kg
Experimental: Syngeneic orthotopic small intestinal transplantation was performed in Lewis rats as previously described (Schwarz N T, Nakao A, Nalesnik M A, Kalff J C, Murase N, Bauer A J. Protective effects of ex vivo graft radiation and tacrolimus on syngeneic transplanted rat small bowel motility. Surgery 2002; 131: 413-423). […] Then the graft vascular bed was perfused with chilled UW solution (University of Wisconcin) and the intestinal lumen was irrigated with 50 ml cold 0.9% NaCl solution containing […]. neomycin sulfate (Uro Nebacetin N, Nycomed, Germany). The graft was stored in cold UW solution during the preparation of the recipient. An end-to-side anastomosis between the graft aorta and the recipient infra-renal aorta, and between the graft vein and recipient vena cava, was performed. Approximately 80% of the recipient intestine was removed and enteric continuity was restored by proximal and distal end-to-end intestinal anastomoses. […]
Apoptotic cells within the smooth muscle layer of the grafts were detected 3 and 18 h after reperfusion by detection of DNA double strand breaks with a commercially available TUNEL kit (Roche, Mannheim, Germany) according to the manufactures instructions.

[2] = tested on: swine; test: Intestinal anastomotic healing in swine (bursting pressure, hydroxyproline content); assay type: in vivo; conditions: 1 mg/kg p.o. 14 hours and 3 hours, or once 2 hours (iv group), before operation, postoperative day 6
Experimental: Swine were fed with 1 mg/kg CPSI-2364 or placebo (2.5% mannitol) 14 hours and 3 hours before operation. In the iv group, 1 mg/kg CPSI 2364 was fed once 2 hours before operation. After premedication animals were intubated and a central venous catheter was applied. A laparotomy was performed under sterile conditions.

[3] = tested on: MCP-1 mRNA; test: Proinflammatory gene expression in ME, real-time RT-PCR: MCP-1; assay type: in vivo, mice; conditions: 5 mg/kg i.v. preoperative
Source text: The small bowel of the animals was subjected to a standardized, surgical manipulation (IM) as described previously (Kalff J C, Schraut W H, Simmons R L et al. Surgical manipulation of the gut elicits an intestinal muscularis inflammatory response resulting in postsurgical ileus. Ann Surg 1998; 228:652-663; Wehner S, Schwarz N T, Hundsdoerfer R et al. Induction of IL-6 within the rodent intestinal muscularis after intestinal surgical stress. Surgery 2005; 137:436-446). In brief, after anesthesia a midline abdominal incision was made into the peritoneal cavity. The entire small bowel was eventuated and manipulated with standardized moderate intensity using two moist cotton applicators as described previously. After IM, the laparotomy was closed by one layer of continuous suture, except when probe sampling was conducted within 20 minutes after surgery. These animals were held in anesthesia and the abdomen was closed by a clamp and protected with sterile gauze. All other animals recovered rapidly from the bowel manipulation procedure. Control animals exclusively underwent laparotomy without eventration and IM (sham operation).
Animals within examples referring to FIGS. 2-9 were treated 90 minutes before operation with 0 mg/kg (placebo group), or 5 mg/kg bodyweight CNI-1493. […]
Proinflammatory gene expression was analyzed in placebo and CNI-1493 (5 mg/kg) treated animals at 1, 3, 6 and 24 hours after operation; n=5-7 each group. […] Total RNA was analyzed in ME specimen that was prepared as described before (Wehner S, Behrendt F F, Lyutenski B N et al. Inhibition of macrophage function prevents intestinal inflammation and postoperative ileus in rodents. Gut 2007; 56:176-185). […] Expression of mRNA was quantified in triplicate by a RT-PCR with gene expression assays for […] (MCP-1; #Mm00441242_m1), CCL3 (MIP-1α #Mm00441258_m1), IL-6 (Assay ID #Mm00446190_ml), TNF-α (#Mm00443258_m1) and ICAM-1 (#Mm00516023_m1). […] Data quantification was performed by the ΔΔCT method. […]

[4] = tested on: C57BL/6J mice; test: Anastomotic wound healing (hydroxyproline content, bursting pressure), mouse; assay type: in vivo; conditions: 5 mg/kg i.v. 90 minutes before transection; POD 2, 5 and 10
Experimental: C57BL/6J mice were treated with 0 mg/kg (placebo) or 5 mg/kg CNI-1493 90 minutes before colonic transection followed by an anastomosis with 8-10 interrupted polypropylene 8.0 sutures. On postoperative days (POD) 2, 5 and 10 anastomotic tissue was investigated for disturbances of wound healing by measurement of hydroxyproline content and bursting pressure.
Hydroxyproline content was determined from an 1 cm perianastomotic region as described before (Woessner J. F., Jr. The determination of hydroxyproline in tissue and protein samples containing small proportions of this imino acid. Arch Biochem Biophys 1961; 93:440-447). Results were normalized as micrograms of hydroxyproline per gram tissue.
Anastomotic bursting pressure (ABP) was measured directly after sacrifice and sampling a 3 cm colonic segment including the anastomotic site. The anastomotic specimen was cleared from feces and ligated twice at the distal end using a 6-0 polyglactin (Vicryl™, Ethicon, Belgium) suture. An 18 G arterial catheter (Vygon, France) was inserted intraluminally within the specimen at the proximal end and two stay sutures were tied to prevent leakage. […] The intraluminal pressure (mmHg) was measured and recorded using a pressure transducer with an amplifier and recorded by the Biopac A/D systems (Biopac Systems, Goleta, USA). […]

SMILES: C/C(=N\N=C(N)N)c1cc(NC(=O)CCCCCCCCC(=O)Nc2cc(/C(C)=N/N=C(N)N)cc(/C(C)=N/N=C(N)N)c2)cc(/C(C)=N/N=C(N)N)c1.CS(=O)(=O)O.CS(=O)(=O)O.CS(=O)(=O)O.CS(=O)(=O)O [CPSI-2364]
- number of apoptotic bodies in muscularis ([1]; 3 h after reperfusion): 21.0
- number of apoptotic bodies in muscularis ([1]; 18 h after reperfusion): 7.2
- anastomotic bursting pressure levels vs placebo [2]: No differences were observed
- anastomotic hydroxyproline content vs placebo [2]: No differences were observed

SMILES: C/C(=N\N=C(N)N)c1cc(NC(=O)CCCCCCCCC(=O)Nc2cc(/C(C)=N/N=C(N)N)cc(/C(C)=N/N=C(N)N)c2)cc(/C(C)=N/N=C(N)N)c1.Cl.Cl.Cl.Cl [CNI-1493]
- MCP-1 mRNA expression (fold upregulation) ([3]; 3 hours after IM): 142±45 fold
- MCP-1 mRNA expression (fold upregulation) ([3]; 6 hours after IM): 317±143 fold
- MCP-1 mRNA expression (fold upregulation) ([3]; 24 hours after IM): 92±44 fold
- anastomotic bursting pressure vs placebo [4]: did not differ at any time
- anastomotic hydroxyproline content vs placebo [4]: did not differ at any time
